{"source": "patent US20260053801A1", "about": "“METHOD FOR TREATING AUTOPHAGY DEPENDENT CANCER WITH A PIKFYVE INHIBITOR” (The Regents of the University of Michigan, priority 2023, published 2026)", "key": {"[1]": {"system": "FASN and ACACA transcripts in AsPC1 cells", "settings": "MRTX1133 100 nM, 24 hours; cited from earlier work"}, "[2]": {"system": "autophagic flux in Panc 04.03 cells", "assay": "GFP-LC3-RFP-LC3ΔG autophagic flux probe assay in Panc 04.03 cells", "format": "cell-based, human", "settings": "for autophagic flux induced by torin-1: 4-hour pre-treatment, then torin-1 100 nM 24 hours; for autophagic flux induced by torin-1 / basal autophagic flux: apilimod 300 nM, ESK981 1000 nM, chloroquine", "excerpt": "(§1) Generation of the autophagic flux probe in 7940B, Panc 04.03, and iKRAS was done according to the original author's instructions. Kaizuka, T. et al., Mol Cell 64, 835-849, doi:10.1016/j.molcel.2016.09.037 (2016). Briefly, cells were infected with pMRX-IP-GFP-LC3-RFP-LC3DG, which was a gift from Noboru Mizushima (Addgene plasmid #84572; http://n2t.net/addgene:84572; RRID:Addgene_84572). Following puromycin selection, single-cell clones were expanded and genotyped to ensure the absence of homologous recombination between two LC3 fragments during retrovirus integration.\n(§2) 15,000 cells were seeded in 96-well plates. After overnight incubation, cells were treated with the indicated compounds for 24 hours. […] Fluorescent signals were detected using the Infinite M1000 Pro plate reader (Tecan)."}, "[3]": {"system": "FASN and ACACA transcripts in AsPC1 cell-derived xenograft", "settings": "30 mg/kg MRTX1133 6 hours prior to tumor collection; cited from earlier work"}, "[4]": {"system": "autophagic flux in 7940B cells", "assay": "GFP-LC3-RFP-LC3ΔG autophagic flux probe assay in 7940B cells", "format": "cell-based, mouse", "settings": "for basal autophagic flux / autophagic flux induced by torin-1: apilimod 100 nM, ESK981 1000 nM, chloroquine 50 μM; for autophagic flux induced by torin-1: torin-1 100 nM", "excerpt": "as §1, §2"}, "[5]": {"system": "FASN and ACACA", "assay": "qPCR of FASN and ACACA in PDAC cell lines treated with KRAS-MAPK inhibitors", "format": "cell-based", "settings": "eight hours; PDAC cell lines with the relevant KRAS mutation", "protocol": "Total RNA was isolated from cells using the miRNeasy kit (Qiagen), and cDNA was synthesized from 1000 ng of total RNA using Maxima First Strand cDNA Synthesis Kit for RT-qPCR (Thermo Fisher Scientific). Quantitative real-time PCR was performed in triplicates using standard SYBR green reagents and protocols on a QuantStudio 5 Real-Time PCR system (Applied Biosystems). The target mRNA expression was quantified using the ΔΔCt method and normalized to ACTB (human) or Actb (murine) expression. All primers were designed using Primer 3 (http://frodo.wi.mit.edu/primer3/) and synthesized by Integrated DNA Technologies (Coralville)."}, "[6]": {"system": "7940B cells", "assay": "RNA-seq in 7940B cells", "format": "cell-based, mouse", "settings": "eight-hour treatment", "protocol": "RNA-seq libraries were prepared using 800 ng of total RNA. Ribosomal RNA were removed by enzymatic digestion of the specific probe-bound duplex rRNA, and then fragmented to around 200-300 bp with heat in fragmentation buffer (KAPA RNA Hyper+RiboErase HMR, Roche). Double-stranded cDNA was then synthesized by reverse transcription and underwent end-repair and ligation using New England Biolabs (NEB) adapters. Final library preparation was then prepared by amplification with 2×KAPA HiFI HotStart mix and NEB dual barcode. Library quality was measured on an Agilent 2100 Bioanalyzer (DNA 1000 chip) for concentration and product size. Paired-end libraries were sequenced with the Illumina NovaSeq, (2×151 nucleotide read length) with sequence coverage to 30-40 million paired reads. Reads were demultiplexed using Illumina's bcl2fastq conversion software v2.20. Transcripts were quantified by the alignment-free approach kallisto using index generated from mouse reference genome (mm10) and then summed to obtain gene level counts. Differential analysis was performed using limma-voom after TMM-normalization of gene level counts with calcNormFactors of edgeR. Genes with mean Transcripts Per Million (TPM) less than 1 in both control and treatment groups were considered as lowly expressed genes and excluded for differential analysis. […]"}, "[7]": {"system": "7940B cells", "assay": "Targeted lipidomics in 7940B cells", "format": "cell-based, mouse", "settings": "24 hours; apilimod 100 nM, ESK981 1000 nM", "protocol": "Sample preparation: Samples for lipidomics analyses were prepared according to the automatic dual-metabolite/lipid sample preparation workflow described in the Agilent application note 5994-5065EN. Briefly, 1 million cells were washed in PBS and lysed with 1:1 trifluoroethanol/water at room temperature. Lysates were transferred to microcentrifuged tubes, incubated for 10 minutes, and then centrifuged at 250×g for 30 seconds. Samples were then dehydrated under reduced pressure with no heat. […]\nLC-MS/MS analysis: samples were analyzed on an Agilent 1290 Infinity II Bio LC ultra-high performed liquid chromatography (UPLC) system consisting of a high-pressure binary pump, multicolumn thermostat, and a temperature controlled multi-sampler. Samples were analyzed in randomized order on an Agilent 649C triple quadrupole mass spectrometer equipped with an Agilent Jet Stream Dual ESI ion source. Specifically, samples were analyzed with the reverse phase LC-MS/MS method reported in the Agilent application note 5994-3747EN. After acquisition, datasets were processed with MassHunter Quantitative analysis software and subsequently imported into Mass Profiler Professional (MPP) for chemometric analysis. […]"}, "[8]": {"system": "cell surface MHC-I", "assay": "Flow cytometry of cell surface MHC-I in mouse cancer lines", "format": "cell-based", "settings": "pancreatic (KPC1361); extended to 4T1, B16-F10, LLC"}, "[9]": {"biological_target": "T1, mouse PIKfyve protein (Mus musculus, UniProt Q9Z1T6)", "T1 construct": "endogenous in cells; host or cells: 7940B (murine KPC pancreatic cancer cell line)", "T1 sequence (Q9Z1T6 whole entry)": "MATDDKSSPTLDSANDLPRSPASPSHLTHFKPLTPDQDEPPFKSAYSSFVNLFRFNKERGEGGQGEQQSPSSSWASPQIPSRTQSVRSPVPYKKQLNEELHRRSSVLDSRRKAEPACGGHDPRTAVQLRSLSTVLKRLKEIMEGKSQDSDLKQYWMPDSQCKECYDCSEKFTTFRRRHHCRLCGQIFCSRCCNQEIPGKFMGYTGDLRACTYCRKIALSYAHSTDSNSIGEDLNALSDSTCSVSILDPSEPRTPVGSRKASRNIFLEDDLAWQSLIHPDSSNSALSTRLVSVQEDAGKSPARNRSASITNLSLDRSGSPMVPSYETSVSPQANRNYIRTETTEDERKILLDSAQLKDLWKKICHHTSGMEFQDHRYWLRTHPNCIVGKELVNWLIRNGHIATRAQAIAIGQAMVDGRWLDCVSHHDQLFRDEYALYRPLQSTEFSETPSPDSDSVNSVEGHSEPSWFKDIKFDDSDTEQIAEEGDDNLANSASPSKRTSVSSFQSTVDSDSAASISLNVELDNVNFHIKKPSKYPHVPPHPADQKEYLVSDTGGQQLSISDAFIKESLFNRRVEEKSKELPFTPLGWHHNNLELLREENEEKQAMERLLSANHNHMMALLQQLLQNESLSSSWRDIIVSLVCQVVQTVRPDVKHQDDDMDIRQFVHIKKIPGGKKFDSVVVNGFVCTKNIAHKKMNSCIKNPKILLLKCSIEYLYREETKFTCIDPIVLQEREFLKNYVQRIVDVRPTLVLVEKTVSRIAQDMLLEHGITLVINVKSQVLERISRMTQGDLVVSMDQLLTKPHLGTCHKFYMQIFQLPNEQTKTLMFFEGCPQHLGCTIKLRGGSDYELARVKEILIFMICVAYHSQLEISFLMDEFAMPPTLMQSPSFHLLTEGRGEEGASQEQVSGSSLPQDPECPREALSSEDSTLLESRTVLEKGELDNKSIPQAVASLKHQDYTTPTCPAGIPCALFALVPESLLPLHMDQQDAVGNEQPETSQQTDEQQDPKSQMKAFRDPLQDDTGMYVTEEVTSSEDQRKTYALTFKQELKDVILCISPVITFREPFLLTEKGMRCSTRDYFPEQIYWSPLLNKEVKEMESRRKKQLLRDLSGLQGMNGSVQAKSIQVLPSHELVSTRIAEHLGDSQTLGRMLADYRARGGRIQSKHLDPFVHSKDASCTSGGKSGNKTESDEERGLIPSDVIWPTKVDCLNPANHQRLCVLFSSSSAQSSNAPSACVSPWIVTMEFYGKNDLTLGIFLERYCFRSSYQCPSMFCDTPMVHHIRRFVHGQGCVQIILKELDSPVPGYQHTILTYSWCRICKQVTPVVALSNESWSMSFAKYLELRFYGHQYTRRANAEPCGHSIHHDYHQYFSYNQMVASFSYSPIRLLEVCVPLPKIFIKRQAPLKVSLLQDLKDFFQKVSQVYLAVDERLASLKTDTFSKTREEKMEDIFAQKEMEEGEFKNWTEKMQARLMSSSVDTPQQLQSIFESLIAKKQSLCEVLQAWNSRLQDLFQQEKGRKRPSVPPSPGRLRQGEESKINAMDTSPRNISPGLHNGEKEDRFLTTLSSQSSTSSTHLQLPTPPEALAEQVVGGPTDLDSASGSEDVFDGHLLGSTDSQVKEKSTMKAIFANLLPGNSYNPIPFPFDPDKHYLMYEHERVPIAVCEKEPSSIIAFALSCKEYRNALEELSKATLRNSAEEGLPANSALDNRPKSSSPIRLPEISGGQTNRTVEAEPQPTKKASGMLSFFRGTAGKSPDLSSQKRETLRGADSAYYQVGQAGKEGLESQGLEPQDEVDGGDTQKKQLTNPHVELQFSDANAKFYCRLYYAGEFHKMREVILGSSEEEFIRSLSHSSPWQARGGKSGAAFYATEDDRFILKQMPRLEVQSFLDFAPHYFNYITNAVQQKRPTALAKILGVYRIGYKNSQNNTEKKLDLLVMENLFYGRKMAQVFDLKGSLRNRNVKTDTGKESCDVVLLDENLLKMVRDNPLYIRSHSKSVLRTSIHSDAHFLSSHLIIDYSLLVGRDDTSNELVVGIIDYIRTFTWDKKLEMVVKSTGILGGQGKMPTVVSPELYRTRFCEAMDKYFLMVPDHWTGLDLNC", "assay": "Cellular Thermal Shift Assay (CETSA) in 7940B cells", "format": "binding", "settings": "1000 nM, 2 hours", "protocol": "CETSA was performed according to previously described protocols^71. Briefly, 7940B cells were seeded overnight and were subsequently treated with DMSO, ESK981 (1000 nM), or apilimod (1000 nM) for 2 hours. Cells were then harvested and made into single-cell suspensions of 1×10^6 cells each in […] of PBS containing protease inhibitors. The suspensions were then subjected to heating and cooling cycles (two cycles of 3-minute heating followed by 3-minute cooling at room temperature) using a thermal cycler. Cells were then lysed with three cycles of freeze-thawing in liquid nitrogen. Lysates were then analyzed using immunoblot analysis as previously described."}, "[10]": {"system": "7940B cells", "assay": "Targeted metabolomics in 7940B cells", "format": "cell-based, mouse", "settings": "apilimod 100 nM, ESK981 1000 nM", "protocol": "Polar metabolites from samples treated in biological triplicates were extracted using 80% v/v methanol/water and normalized using protein quantification from an additional sample from each condition. Equal estimated amounts of metabolites were dried using a SpeedVac vacuum concentrator, reconstituted in 50% v/v methanol in water, and analyzed by LC-MS as previously described. Data were analyzed as previously described with the Agilent Masshunter Workstation Quantitative Analysis for QQQ version 10.1 Build 10.1.733.0. No post-detection normalization was performed to avoid assuming linearity of signal. Heatmaps were generated using the Morpheus Matrix Visualization and analysis tool (https://software.broadinstitute.org/morpheus)."}, "[11]": {"settings": "Ikonomov et al. 2019; cited from earlier work"}, "[12]": {"system": "7 human and mouse PDAC cell lines", "settings": "7 days, CellTiter-Glo", "protocol": "Cells were plated into 96-well plates and incubated overnight at 37° C. in 5% CO2. The following day, a serial dilution of the indicated compounds was prepared in culture medium and added to the plate. The cells were then further incubated for 5 days (experiments involving MRTX1133 or trametinib) or 7 days (all other experiments). Subsequently, the CellTiter-Glo assay (Promega), was then performed according to the manufacturer's instructions. The luminescence signal was acquired using an Infinite M1000 Pro plate reader (Tecan), and the data were analyzed using GraphPad Prism 10 (GraphPad Software Inc.)."}, "[13]": {"system": "autophagic flux in iKras cells", "assay": "Autophagic flux probe assay in iKRAS 9805 cells", "format": "cell-based", "settings": "doxycycline withdrawal; apilimod 100 nM, ESK981 1000 nM, chloroquine 10 μM, 24 hours", "excerpt": "as §1, §2"}, "[14]": {"system": "7940B cells", "assay": "Real-time oxygen consumption rate (Resipher) in 7940B cells", "format": "cell-based, mouse", "settings": "apilimod 100 nM, ESK981 1000 nM, bafilomycin 100 nM, chloroquine 100 μM", "protocol": "Real-time monitoring of basal oxygen consumption rate was performed using a Resipher (Lucid Scientific). […] Immediately following treatment with an additional 50 μl of medium (for a total of 100 μl), OCR monitoring was started by placing the Resipher device on the cells, which was incubated at 37° C. and 5% CO2 for 24 hours."}, "[15]": {"settings": "24-hour treatment, labeled doses"}, "[16]": {"settings": "MRTX1133 300 nM or trametinib 25 nM, 24 hours"}}, "note": "Entries after “also recorded” stand apart in the source; their conditions may differ."}
{"smiles": "C#Cc1c(F)ccc2cc(O)cc(-c3ncc4c(N5CC6CCC(C5)N6)nc(OC[C@@]56CCCN5C[C@H](F)C6)nc4c3F)c12", "note": "[MRTX1133]", "values": [{"measurement": "FASN and ACACA transcripts in vitro", "setting": "[1]", "result": "decreases FASN and ACACA transcripts"}, {"measurement": "autophagy upon acute KRAS G12D inhibition", "setting": "[2]; [15]", "result": "upregulate autophagy"}, {"measurement": "autophagic flux upon KRAS-MAPK inhibition", "setting": "[2]; [16]", "result": "induced autophagic flux"}, {"measurement": "FASN and ACACA transcripts in vivo", "setting": "[3]", "result": "decreases FASN and ACACA transcripts"}, {"measurement": "autophagy upon acute KRAS G12D inhibition", "setting": "[4]; [15]", "result": "upregulate autophagy"}, {"measurement": "autophagic flux upon KRAS-MAPK inhibition", "setting": "[4]; [16]", "result": "induced autophagic flux"}, {"measurement": "transcription of FASN and ACACA", "setting": "[5]", "result": "decreased transcription of FASN and ACACA"}]}
{"smiles": "Cc1cccc(/C=N/Nc2cc(N3CCOCC3)nc(OCCc3ccccn3)n2)c1", "note": "[apilimod, N-[(E)-(3-methylphenyl)methylideneamino]-6-morpholin-4-yl-2-(2-pyridin-2-ylethoxy)pyrimidin-4-amine]", "values": [{"measurement": "gene expression changes", "setting": "[6]", "result": "concordant gene expression changes"}, {"measurement": "most upregulated pathways", "setting": "[6]", "result": "cholesterol homeostasis, MTORC1 signaling, and fatty acid metabolism"}, {"measurement": "cellular lipid landscape", "setting": "[7]", "result": "induced significant changes in the cellular lipid landscape"}, {"measurement": "cell surface expression of MHC-I", "setting": "[8]", "result": "increased cell surface expression of MHC-I"}, {"measurement": "binding / stabilization of PIKfyve (CETSA)", "setting": "[9]", "result": "bind to mouse PIKfyve protein; also recorded: stabilization of PIKfyve"}, {"measurement": "autophagic flux induced by torin-1", "setting": "[2]", "result": "decreased"}, {"measurement": "basal autophagic flux", "setting": "[2]", "result": "decreased"}, {"measurement": "glycolytic metabolites", "setting": "[10]; eight hours", "result": "dramatic depletion of glycolytic metabolites"}, {"measurement": "citrate level", "setting": "[10]; three hours", "result": "decrease in citrate"}, {"measurement": "in vivo pharmacokinetics", "setting": "[11]", "result": "poor in vivo pharmacokinetics"}, {"measurement": "basal autophagic flux", "setting": "[4]; 24 hours", "result": "decreased"}, {"measurement": "autophagic flux induced by torin-1", "setting": "[4]", "result": "decreased"}]}
{"smiles": "CCN(CC)CCCC(C)Nc1ccnc2cc(Cl)ccc12", "note": "(centres unmarked) [chloroquine]", "values": [{"measurement": "half-maximal inhibitory concentrations (IC50), cell viability", "setting": "[12]", "result": "much higher"}, {"measurement": "increase in autophagic flux upon Kras OFF", "setting": "[13]", "result": "attenuated"}, {"measurement": "autophagic flux induced by torin-1", "setting": "[2]", "result": "decreased"}, {"measurement": "basal autophagic flux", "setting": "[2]", "result": "decreased"}, {"measurement": "OCR through 24 hours of treatment", "setting": "[14]", "result": "significantly decreased OCR"}, {"measurement": "basal autophagic flux", "setting": "[4]; 24 hours", "result": "decreased"}, {"measurement": "autophagic flux induced by torin-1", "setting": "[4]", "result": "decreased"}]}
